Laboratory results published in US20060013769A1, “Transdermal drug delivery formulations and method of determining optimal amounts of vasodilators therein” (priority 2004, published 2006).

Experiments:
Format in all cases: in vivo
blood flow = experiment: Maximal blood flow stimulated by vasodilator, laser Doppler perfusion imager
Experimental: Maximal blood flow stimulated by the vasodilator tolazoline was measured using a laser Doppler perfusion imager.

[1] = Topical ibuprofen vehicle with tocopherol nicotinate applied to rabbits, ibuprofen in plasma over three hours
Experimental: (§1) Test formulations containing 15% ibuprofen-sodium salt, 5% oleic acid, 10% menthol, 5% propylene glycol, 10% dimethylacetamide, 1% decylmethylsulfoxide, 1% u-care, varying amounts of tocopherol nicotinate in the range of 0-1%, and 52-53% deionized water were each blended in a beaker with a mechanical mixer and heated to 40° C. for 30 minutes until clear, then cooled to room temperature.
(§2) 150 mg of sodium salt-ibuprofen was formulated with a 1-gram dose of the above lipid-based vehicle formulations containing the increasing amounts of the vasodilator tocopherol nicotinate. The Ibuprofen vehicle was topically applied to rabbits and blood samples were taken over a three-hour period. Plasma was prepared and analyzed for the amount of ibuprofen present in the blood. The data represents the integrated value of ibuprofen concentration in the blood for the three hour time period for each concentration of tocopherol nicotinate.

[2] = Topical ibuprofen vehicle with papaverine applied to rabbits, ibuprofen in plasma over three hours
Experimental: as §1, with “papaverine ranging from” for “tocopherol nicotinate in the range of”
as §2, with “with” for “with a 1-gram dose of”, “formulatiosn” for “formulations”, “containing” for “containing the”, “papaverine.” for “tocopherol nicotinate.”

[3] = Topical ibuprofen vehicle with tolazoline applied to rabbits, ibuprofen in plasma over three hours
Experimental: as §1, with “tolazoline ranging from 0-0.1%,” for “tocopherol nicotinate in the range of 0-1%,”, “52.9-53%” for “52-53%”
as §2, with “with” for “with a 1-gram dose of”, “formulatiosn” for “formulations”, “containing” for “containing the”, “tolazoline.” for “tocopherol nicotinate.”

## c1ccc(CC2=NCCN2)cc1 [tolazoline]
Blood flow
  concentration at which the maximum blood flow was achieved: 0.5%

## CC(C)Cc1ccc(C(C)C(=O)O)cc1 (centres unmarked) [Ibuprofen, ibuprofen]
[1]; 0.00010% tocopherol nicotinate in vehicle
  integrated value of ibuprofen concentration in the blood (0-3 hr): 3980 ng·h/mL
[1]; 0.00025% tocopherol nicotinate in vehicle
  integrated value of ibuprofen concentration in the blood (0-3 hr): 9480 ng·h/mL
[1]; 0.00050% tocopherol nicotinate in vehicle
  integrated value of ibuprofen concentration in the blood (0-3 hr): 3120 ng·h/mL
[1]; 0.0010% tocopherol nicotinate in vehicle
  integrated value of ibuprofen concentration in the blood (0-3 hr): 5080 ng·h/mL
[1]; 0.0100% tocopherol nicotinate in vehicle
  integrated value of ibuprofen concentration in the blood (0-3 hr): 5840 ng·h/mL
[1]; 0.100% tocopherol nicotinate in vehicle
  integrated value of ibuprofen concentration in the blood (0-3 hr): 4300 ng·h/mL
[1]; 1.000% tocopherol nicotinate in vehicle
  integrated value of ibuprofen concentration in the blood (0-3 hr): 4400 ng·h/mL
[1]; Control (no tocopherol nicotinate), 150 mg sodium salt-ibuprofen in 1 g vehicle
  integrated value of ibuprofen concentration in the blood (0-3 hr): 1030 ng·h/mL
[2]; 0.00010% papaverine in vehicle
  integrated value of ibuprofen concentration in the blood (0-3 hr): 5120 ng·h/mL
[2]; 0.00025% papaverine in vehicle
  integrated value of ibuprofen concentration in the blood (0-3 hr): 4470 ng·h/mL
[2]; 0.00050% papaverine in vehicle
  integrated value of ibuprofen concentration in the blood (0-3 hr): 8370 ng·h/mL
[2]; 0.0010% papaverine in vehicle
  integrated value of ibuprofen concentration in the blood (0-3 hr): 7620 ng·h/mL
[2]; 0.0100% papaverine in vehicle
  integrated value of ibuprofen concentration in the blood (0-3 hr): 5720 ng·h/mL
[2]; 0.100% papaverine in vehicle
  integrated value of ibuprofen concentration in the blood (0-3 hr): 4230 ng·h/mL
[2]; 1.000% papaverine in vehicle
  integrated value of ibuprofen concentration in the blood (0-3 hr): 6160 ng·h/mL
[2]; Control (no papaverine), 150 mg sodium salt-ibuprofen in vehicle
  integrated value of ibuprofen concentration in the blood (0-3 hr): 1030 ng·h/mL
[3]; 0.0010% tolazoline in vehicle
  integrated value of ibuprofen concentration in the blood (0-3 hr): 3900 ng·h/mL
[3]; 0.0050% tolazoline in vehicle
  integrated value of ibuprofen concentration in the blood (0-3 hr): 5240 ng·h/mL
[3]; 0.0100% tolazoline in vehicle
  integrated value of ibuprofen concentration in the blood (0-3 hr): 5660 ng·h/mL
[3]; 0.0500% tolazoline in vehicle
  integrated value of ibuprofen concentration in the blood (0-3 hr): 3530 ng·h/mL
[3]; 0.100% tolazoline in vehicle
  integrated value of ibuprofen concentration in the blood (0-3 hr): 4530 ng·h/mL
[3]; Control (no tolazoline), 150 mg sodium salt-ibuprofen in vehicle
  integrated value of ibuprofen concentration in the blood (0-3 hr): 1030 ng·h/mL
